This is an account of results in patent US8338622B2, “Heterocyclic compound” (Takeda Pharmaceutical Company Limited, priority 2008, dated 2012).

In assay [1] the target is T1, human RBP4 (Homo sapiens, UniProt P02753).
T1 construct: the culture supernatant containing secreted/expressed hRBP4-His was recovered; His tag (His6, read from the HISENU oligo); made in house; host or cells: FreeStyle293 expression system (Invitrogen), secreted into the culture supernatant
In words: Binding assay by Retinol-RBP4-TTR ELISA (human type ELISA). The conditions noted are these: retinol 0.5 μM, read-out: human RBP4 binding inhibitory activity (IC50 nM). How it is done:
The action of the compound of the present invention to inhibit the binding between RBP4, and retinol and TTR was evaluated using the Retinol-RBP4-TTR ELISA (human type ELISA) system shown below.
The binding assay was performed by an ELISA system (Retinol-RBP4-TTR ELISA) for detecting retinol-RBP4-TTR conjugate by streptavidin-biotin reaction.
His-tagged human RBP4 used was prepared in the above-mentioned 1C.
Biotinylated human TTR used was prepared in the above-mentioned 1E.
Streptavidin (20 μl) (10 μg/ml Streptavidin type II (Wako Pure Chemical Industries, Ltd.), 10 mM Tris-HCl (pH 7.5), 10 mM NaCl) was added to a 384 well black maxisorp plate (Nunc), and the plate was subjected to centrifugation (1000 rpm, 1 min) and coated overnight at 4° C. The plate was washed twice with PBST (PBS, 0.05% Tween 20, 100 μl/well) and blocked with 25% Block Ace (Snow Brand Milk Products Co., Ltd., PBS, 100 μl/well). The plate was subjected to centrifugation (1000 rpm, 1 min) and incubated at room temperature for 4 hr or overnight at 4° C. The plate was washed twice with PBST (PBS, 0.05% Tween 20, 100 μl/well), and biotinylated human TTR (stock solution concentration 1.3 mg/ml) diluted 1000-fold with PBST was added at 20 μl/well. The plate was subjected to centrifugation (1000 rpm, 1 min) and stood still at room temperature for 1.5 hr or overnight at 4° C. The plate was washed 3 times with PEST (100 μl/well), and His-tagged human RBP4 (stock solution concentration 0.96 mg/ml) diluted 4000-fold with a reaction buffer (50 mM Tris-HCl, 150 mM NaCl, 0.005% Tween 20, 1 mM DTT, 0.1% BSA) was added at 10 μl/well. The dilution series (8 doses from 10 mM, 200-fold concentration) of the compound was prepared with DMSO, and 1 μl of each was added to a reaction buffer (200 μl) containing retinol (0.5 μM) (Sigma-Aldrich Co.). A reaction buffer (200 μl) containing retinol and added with DMSO was used as a positive control, and reaction buffer (200 μl) free of retinol and added with DMSO was used as a negative control. Mixed solutions of retinol and the compound were added to the plate at 15 μl/well. The mixture was stirred in a platemixer, subjected to centrifugation (1000 rpm, 1 min) and reacted at room temperature for 2 hr. A 35% Block Ace solution diluted with the reaction buffer was added at 10 μl/well, centrifuged (1000 rpm, 1 min) and reacted at room temperature for 30 min. The plate was washed 3 times with PBST (100 μl/well) and SuperSignal ELISA Femto Maximum Sensitivity Substrate reagent (PIERCE) was added at 30 μl/well, and the luminescence was measured by a platereader (Wallac).
The binding activity rate of the compound was determined by 100×(test compound value−negative control value)/(positive control value−negative control value). The binding inhibitory activity (IC50) was calculated from the binding activity rate at each compound concentration using a graph drawing software, Prism (GraphPad Software Inc.).
For orientation: ELISA stands for enzyme-linked immunosorbent assay.

Assay [2] concerns the target T2, RBP4 (Mus musculus, UniProt Q00724).
T2 construct: from tissue; host or cells: plasma of male C57BL/6J mice (Charles River Laboratories Japan Inc.)
In words: Blood RBP4 lowering action in C57BL/6J mouse, single oral administration. The assay is classed as in vivo. Particulars: plasma, mean±SD n=5; for RBP4 (% of initial/Control) 0 hr later: 0 hr value before administration, 50 mg/kg oral; for RBP4 (% of initial/Control) 4 hr later: 4 hr after 50 mg/kg oral; for RBP4 (% of initial/Control) 7 hr later: 7 hr after 50 mg/kg oral; for RBP4 (% of initial/Control) 24 hr later: 24 hr after 50 mg/kg oral. How it is done: A blood RBP4 lowering action of the compound of the present invention was evaluated using C57BL/6J mouse.
Male 7- to 15-week-old C57BL/6J mice (Charles River Laboratories Japan Inc.) were individually bred for acclimation for 4-6 days under conditions with free access to CE-2 solid food (CLEA Japan, Inc.), and grouped based on the body weight (5 per group). The next day of grouping, blood samples were collected from the orbital venous plexus, and plasma was separated (0 hr value). Thereafter, the test compounds (Examples 1, 13, 15, 16, 17, 27 and 34) were orally administered at a dose of 50 mg/kg (solvent: 0.5% methylcellulose solution (10 mL/kg)). At 4, 7 and 24 hr after administration of the compounds, blood samples were collected from the orbital venous plexus, and plasma was separated. A 0.5% methylcellulose solution (10 mL/kg) was orally administered to the control group.
The RBP4 level of the collected plasma was measured by ELISA. RBP4 was quantified by the following steps using a rabbit, anti-mouse RBP4 polyclonal antibody (Hokudo Co., Ltd). A 96 well ELISA plate was coated with 50 μg/ml of the antibody (100 μL) and stood at 4° C. overnight. After blocking with BlockAce (DAINIPPON PHARMACEUTICAL CO., LTD.), mouse RBP4 or a sample (100 μL) was added and the plate was stood at room temperature for 2 hr. After washing with PBS-0.5% Tween 20, HRP-labeled anti-RBP4 antibody (prepared by labeling RBP4 polyclonal antibody (Hokudo Co., Ltd) with HRP (DOJINDO LABORATORIES)) was added by 100 μL, and the plate was stood at room temperature for 1 hr. After washing, TMB (Dako Cytomations) was added, and the mixture was stood at room temperature for 20 min to allow color development, and the reaction was quenched with 2N sulfuric acid. Thereafter, the absorbance at A450 nm was measured on a platereader. The amount of change from the initial value of each animal was determined as a relative value from the control group (% of initial/Control) at each time point. The results are shown in the following in mean±standard deviation (n=5).

Assay [3] deals with Zucker fa/fa rats. As to the kind of experiment: Hypoglycemic action in Zucker fa/fa rats (Experimental Example 4A). Particulars: 30 mg/kg oral for 2 weeks. It counts as in vivo, rat. How it is done: A hypoglycemic action of the compound of the present invention was evaluated using Zucker fa/fa rats.
Male 19-week-old Zucker fa/fa rats (Takeda Pharmaceutical Company Limited) were bred in group on CE-2 solid food (CLEA Japan, Inc.) until 12-week-old, thereafter bred on high-fat diet D06110702 (LSG Corporation) for acclimation under conditions with free access to food. At 19-week-old, the rats were grouped based on the body weight, blood glucose level, glycated hemoglobin level and blood RBP4 level value (6 per group). Thereafter, the test compound (Example 34) was orally administered at a dose of 30 mg/kg (solvent: 0.5% methylcellulose solution (5 mL/kg)) for 2 weeks. After 24 hr of the final administration of the compound, blood samples were collected from the tail vein, and plasma was separated. Using the collected plasma, (1) RBP4 concentration, (2) glycated hemoglobin level and (3) blood glucose level were measured. (1) was quantified according to the protocol described in Experimental Example 3. (2) was measured using Tosoh Corporation automatic glycohemoglobin analyzer (HLC-723 GHbV A1c2.2 or HLC-723G7 GHbV A1c2.2), and (3) was measured using Hitachi full-automatic analyzer (7070 or 7080), respectively.
A 0.5% methylcellulose solution (5 mL/kg) was orally administered to the control group. […] The results are shown in the following in mean±standard deviation (n=6). In the following Table, glycated hemoglobin change is obtained by subtracting the value before administration from that after administration.

As a reminder, the IC50 is the point on the concentration scale where inhibition reaches its midpoint. Take `O=C(O)CCSC1CCN(c2cc(C(F)(F)F)cc(C(F)(F)F)c2)C1` (stereo not shown) [Example 50, 3-({1-[3,5-bis(trifluoromethyl)phenyl]pyrrolidin-3-yl}sulfanyl)propanoic acid]: in assay [1], the IC50 is 81 nM.

With `O=C(O)C[S+]([O-])C1CCN(c2cc(C(F)(F)F)cc(C(F)(F)F)c2)C1` (stereo not shown) [Example 2, ({1-[3,5-bis(trifluoromethyl)phenyl]pyrrolidin-3-yl}sulfinyl)acetic acid], the IC50 in assay [1] turned out to be 38 nM.

With `O=C(O)CCN1CCN(c2cc(C(F)(F)F)cc(C(F)(F)F)c2)C1=O` [Example 15, 3-{3-[3,5-bis(trifluoromethyl)phenyl]-2-oxoimidazolidin-1-yl}propanoic acid], in assay [2], the “RBP4 (% of initial/Control) 0 hr later” value is listed as 100.0 ± 4.4 % of initial/Control, the “RBP4 (% of initial/Control) 4 hr later” value was 51.0 ± 1.4 % of initial/Control, the “RBP4 (% of initial/Control) 7 hr later” value is reported as 49.0 ± 1.1 % of initial/Control and the “RBP4 (% of initial/Control) 24 hr later” value is listed as 58.2 ± 2.7 % of initial/Control. Moreover, the IC50 in assay [1] worked out at 320 nM.

Turning to `O=C(O)CCC1CCN(c2ccc(Cl)c(C(F)(F)F)c2)C1` (stereo not shown) [Example 13, 3-{1-[4-chloro-3-(trifluoromethyl)phenyl]pyrrolidin-3-yl}propanoic acid], in assay [2], the “RBP4 (% of initial/Control) 0 hr later” value is 100.0 ± 10.9 % of initial/Control, the “RBP4 (% of initial/Control) 4 hr later” value is recorded as 54.5 ± 1.2 % of initial/Control, the “RBP4 (% of initial/Control) 7 hr later” value is listed as 56.5 ± 2.5 % of initial/Control and the “RBP4 (% of initial/Control) 24 hr later” value is recorded as 106.6 ± 3.9 % of initial/Control. The IC50 in assay [1] came to 26 nM.

Consider `O=C(O)CCC1CCN(c2cccc(C(F)(F)F)c2Cl)C1` (stereo not shown) [Example 14, 3-{1-[2-chloro-3-(trifluoromethyl)phenyl]pyrrolidin-3-yl}propanoic acid], for which the IC50 in assay [1] came out at 39 nM.

Turning to `O=C(O)CSC1CCN(c2cc(C(F)(F)F)cc(C(F)(F)F)c2)C1` (single isomer, unassigned) [Example 10, ({1-[3,5-bis(trifluoromethyl)phenyl]pyrrolidin-3-yl}sulfanyl)acetic acid], in assay [1], the IC50 turned out to be 27 nM.

`O=C(O)CSC1CCN(c2cc(C(F)(F)F)cc(C(F)(F)F)c2)C1` (stereo not shown) [Example 1, ({1-[3,5-bis(trifluoromethyl)phenyl]pyrrolidin-3-yl}sulfanyl)acetic acid]: in assay [2], the “RBP4 (% of initial/Control) 0 hr later” value was 100 ± 20.2 % of initial/Control, the “RBP4 (% of initial/Control) 4 hr later” value is 42.5 ± 3.3 % of initial/Control, the “RBP4 (% of initial/Control) 7 hr later” value was 36.0 ± 3.2 % of initial/Control and the “RBP4 (% of initial/Control) 24 hr later” value is listed as 73.8 ± 19.3 % of initial/Control. In assay [1], the IC50 amounted to 45 nM.

With `O=C(O)CSC1CCN(c2cc(C(F)(F)F)cc(C(F)(F)F)c2)C1` (single isomer, unassigned) [Example 11, ({1-[3,5-bis(trifluoromethyl)phenyl]pyrrolidin-3-yl}sulfanyl)acetic acid], the IC50 in assay [1] amounted to 13 nM.

`O=C(O)CCC1CCC(c2cc(C(F)(F)F)cc(C(F)(F)F)c2)O1` (racemic) [Example 34, 3-{5-[3,5-bis(trifluoromethyl)phenyl]tetrahydrofuran-2-yl}propanoic acid]: in assay [2], the “RBP4 (% of initial/Control) 0 hr later” value is 100.0 ± 5.6 % of initial/Control, the “RBP4 (% of initial/Control) 4 hr later” value is reported as 37.4 ± 2.4 % of initial/Control, the “RBP4 (% of initial/Control) 7 hr later” value is recorded as 34.8 ± 2.6 % of initial/Control and the “RBP4 (% of initial/Control) 24 hr later” value is listed as 107.4 ± 15.3 % of initial/Control. In assay [3], the “blood RBP4 concentration (in words)” value is on record as “significant decrease”, the “blood glucose level (in words)” value is recorded as “significant decrease” and the “glycated hemoglobin change (in words)” value is recorded as “significant decrease”. For the same molecule, in assay [3] (24 hr after final administration, mean±SD n=6), the “blood glucose level” value worked out at 157.2 ± 50.6 mg/dL. In addition, in assay [3] (value after minus before administration, mean±SD n=6), the “glycated hemoglobin change (%)” value is listed as −1.72 ± 0.52%. Besides, in assay [3] (plasma, 24 hr after final administration, mean±SD n=6), the “RBP4” value came out at 5.2 ± 0.2 µg/mL. The IC50 in assay [1] worked out at 26 nM.

For the molecule `O=C(O)CN1CC(c2cc(C(F)(F)F)cc(C(F)(F)F)c2)CC1=O` (stereo not shown) [Example 48, {4-[3,5-bis(trifluoromethyl)phenyl]-2-oxopyrrolidin-1-yl}acetic acid], the half-maximal inhibitory concentration (IC50) in assay [1] was 210 nM.

Take `O=C(O)COC1CCN(c2ccc(Cl)c(C(F)(F)F)c2)C1` (stereo not shown) [Example 27, calcium ({1-[4-chloro-3-(trifluoromethyl)phenyl]pyrrolidin-3-yl}oxy)acetate]: in assay [2], the “RBP4 (% of initial/Control) 0 hr later” value is on record as 100.0 ± 2.1 % of initial/Control, the “RBP4 (% of initial/Control) 4 hr later” value was 56.2 ± 1.7 % of initial/Control, the “RBP4 (% of initial/Control) 7 hr later” value is on record as 56.0 ± 1.6 % of initial/Control and the “RBP4 (% of initial/Control) 24 hr later” value is reported as 59.6 ± 2.1 % of initial/Control. Also, in assay [1], the IC50 was determined as 140 nM.
